One assay deals with T1, Mouse TMEM16A (Mus musculus, UniProt Q8BHY3).
T1 construct: expressed in transfected cells; host or cells: HEK-293T
T1 sequence (Q8BHY3 1-960): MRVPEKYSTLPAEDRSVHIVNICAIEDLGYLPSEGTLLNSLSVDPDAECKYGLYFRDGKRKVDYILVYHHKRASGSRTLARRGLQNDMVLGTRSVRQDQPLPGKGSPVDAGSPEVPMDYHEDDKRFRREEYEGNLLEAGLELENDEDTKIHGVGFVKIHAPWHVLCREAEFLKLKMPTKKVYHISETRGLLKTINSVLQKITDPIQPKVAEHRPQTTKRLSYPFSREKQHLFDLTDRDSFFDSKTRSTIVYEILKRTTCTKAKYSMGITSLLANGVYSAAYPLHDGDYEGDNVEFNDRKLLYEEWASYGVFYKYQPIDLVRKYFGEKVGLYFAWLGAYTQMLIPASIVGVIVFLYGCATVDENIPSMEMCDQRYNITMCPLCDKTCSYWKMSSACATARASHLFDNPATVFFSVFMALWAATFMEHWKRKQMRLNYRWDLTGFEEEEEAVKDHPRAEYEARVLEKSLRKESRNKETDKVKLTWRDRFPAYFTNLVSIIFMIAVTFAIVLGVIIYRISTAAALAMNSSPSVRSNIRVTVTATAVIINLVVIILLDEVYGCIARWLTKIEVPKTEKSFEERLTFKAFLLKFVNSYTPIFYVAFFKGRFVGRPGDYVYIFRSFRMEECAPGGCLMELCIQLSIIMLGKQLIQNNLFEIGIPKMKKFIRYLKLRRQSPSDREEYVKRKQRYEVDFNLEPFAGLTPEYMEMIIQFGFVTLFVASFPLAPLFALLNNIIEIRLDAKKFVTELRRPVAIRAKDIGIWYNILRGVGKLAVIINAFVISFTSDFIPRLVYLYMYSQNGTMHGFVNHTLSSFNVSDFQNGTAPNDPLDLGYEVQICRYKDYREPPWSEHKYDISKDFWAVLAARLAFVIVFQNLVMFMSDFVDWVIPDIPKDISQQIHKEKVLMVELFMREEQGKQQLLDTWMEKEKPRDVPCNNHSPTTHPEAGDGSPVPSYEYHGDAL
Description: Whole-cell TMEM16A current versus Vm relationship with extracellular A9C, 300 nM [Ca2+]i. The format is cell-based. How it is done:
Mouse TMEM16A (GenBank NM_178642) subcloned into pcDNA3.1 vector was used in this study (Alexander et al., 2013). HEK‐293T cells were cultured as previously described (Smith et al., 2013) and transfected with 0.5–1 μg of TMEM16A and 0.1 μg of CD8 constructs using Fugene HD (Promega, Madison, WI, USA) according to the manufacturer's instructions. Cells were used ~12–36 h after transfection. Transfected cells were visualized using the anti‐CD8 antibody‐coated beads method (Jurman et al., 1994).
TMEM16A currents were measured with the whole‐cell or inside‐out patch configuration of the patch‐clamp technique as detailed in the Supporting Information. The exchange of solutions was achieved by using a local perfusion system consisting of eight tubes of 1.2 mm diameter in which the tip of the patch pipette was inserted. In some experiments, ultra‐rapid (<50 ms) changes in A9C concentration ([A9C]) (‘concentration jumps’) were achieved using a computer‐controlled perfusion system (Warner Instruments, Hamden, CT, USA).
The intracellular solution contained (mM) 130 CsCl, 10 EGTA, 1 MgCl2, 10 HEPES and 8 CaCl2 to obtain ~300 nM of [Ca^2+]i; pH was adjusted to 7.3 with NaOH. The intracellular solutions containing ~600 nM, ~1000 nM and ~12.5 μM [Ca^2+]i were obtained by replacing EGTA with equimolar H‐EDTA and by adding 2.1, 3.1 and 7.8 mM CaCl2 respectively. The extracellular solution contained (mM) 150 NaCl, 1 CaCl2, 1 MgCl2, 10 glucose, 10 D‐mannitol and 10 HEPES; pH was adjusted to 7.4 with NaOH. […] A9C was dissolved in DMSO (stock concentration, 300 mM); thus, the final concentration of DMSO was ≤1%. Aliquots of the stock solution were kept at −20° and used within 5 days.
(§1) Current versus V m relationships were constructed by measuring currents in response to 1 s V m steps (test pulses) from −100 to +100 mV in 40 mV increments (unless stated otherwise) after a 1 s V m step to +70 mV (pre‐pulse). Pulses were elicited every 2 s from a holding V m of 0 mV. Steady‐state currents were measured at the end of the test pulses. As detailed in the Results, in the presence of 300 nM [Ca^2+]i and extracellular A9C, the test‐pulse currents reached a peak within the first ~50 ms of the test pulse. These peak currents were also measured and plotted against the V m of the test pulse. Current density was obtained by dividing the current amplitude for the cell capacitance.
For determination of the current reversal potential (E rev), instantaneous currents were estimated from extrapolation of single exponential fits of the test‐pulse currents to the beginning of each test pulse. These instantaneous current values were plotted as a function of the V m, and the relative chord conductance was measured between an interval of ±20 m V around the E rev (Tammaro et al., 2005; Adomaviciene et al., 2013).
The project began by examining if this also applies to cloned TMEM16A channels. In the presence of increasing extracellular [A9C] ([A9C]ext), a pre‐pulse of +70 mV was used to open TMEM16A channels followed by a series of test pulses (Figure 1).
Ta C.M., Adomaviciene A., Rorsman N., Garnett H. and Tammaro P.
SUPPLEMENTARY INFORMATION
TMEM16A currents were measured with the whole-cell or inside-out configuration of
the patch-clamp technique using an Axon 200B amplifier (Molecular Devices, USA)
controlled with GE-pulse software (http://users.ge.ibf.cnr.it/pusch/programs-mik.htm).
Currents were filtered at 2-5 kHz and sampled at 10 kHz, unless stated otherwise. […]

Assay [1] deals with non‐transfected HEK‐293T cells. Kind of assay: Whole-cell endogenous currents in non-transfected cells with extracellular A9C. The format is cell-based. The note with it: +100 mV, 3000 μM [A9C]ext; without A9C 3.6 ± 0.8. How it is done: as §1
To test the possibility that A9C activated endogenous currents in HEK‐293T cells, the effect of [A9C]ext (3000 μM) on non‐transfected cells was assessed. No significant increase in current was observed relative to the small endogenous currents measured in non‐transfected cells in the absence of [A9C]ext (Figure 1A). For example, at +100 mV, the current recorded from non‐transfected HEK‐293T cells in the absence and presence of 3000 μM [A9C]ext was 3.6 ± 0.8 pA∙pF^−1 (n = 6) and 3.7 ± 0.7 pA∙pF^−1 (n = 6) respectively.

We go through one compound from article PMC4728427, “Mechanism of allosteric activation of TMEM16A/ANO1 channels by a commonly used chloride channel blocker” (British Journal of Pharmacology, 2016).

Regarding `O=C(O)c1c2ccccc2cc2ccccc12` [A9C, Anthracene‐9‐carboxylic acid], the “peak current at −100 mV relative to control” value on Mouse TMEM16A (3000 μM A9C extracellular) is ~ 13 folds. In addition, the steady-state current decrease result at Mouse TMEM16A (3000 μM [A9C]ext, Vm > 60 mV, whole-cell) was “up to approximately threefold”. At Mouse TMEM16A (3000 μM [A9C]ext, control 4.5 ± 1.4 mV), the “E rev of TMEM16A currents” value turned out to be 8.3 ± 1.4 mV. For the same compound, on Mouse TMEM16A ([A9C]ext ≤ 100 μM, Vm > 60 mV, whole-cell), the steady-state current increase is ~ 1.3 folds. At Mouse TMEM16A (any [A9C]ext tested (30-3000 μM)), the “steady-state current change at Vm ≤ 60 mV” value is given as “did not change substantially”. Further, the “current density in non-transfected HEK-293T cells” value in assay [1] is listed as 3.7 ± 0.7 pA∙pF^−1.
